The source of these data is patent US20170247335A1, “FLUORINATED PYRIDAZIN-3-ONES FOR THE USE THEREOF IN THE TREATMENT OF LUNG DISEASES” (UNIVERSITE DE REIMS CHAMPAGNE-ARDENNE, priority 2014, published 2017).

Assay type in all cases: biochemical
Assay [1] has as its system PDE1. The experiment in a line: PDE1 enzyme inhibition, same colorimetric test. The settings on record: at a concentration of 50 μM of compound. How it is done: (§1) In order to evaluate the action of the compounds (Ic), (Ig) and (Ii) according to the invention, the activity of different sub-types of phosphodiesterases, either of type 4 or not, was tested in vitro by using a kit adapted to the recombinant isoforms of human phosphodiesterases PDE4B2 and PDE4D coded by Escherichia coli. The activity of the PDE1 and PDE10 enzymes was also monitored.
(§2) The principle of the test is based on the cleavage of AMPc by the enzymes phosphodiesterases. The nucleotide-5′ which is sorted out during the reaction is itself cleaved by an enzyme 5′-nucleotidase into a nucleoside and a phosphate, the latter being quantified by using the reagent Biomol Green™.
(§3) The PDE enzymes are incubated on microplates in the presence of AMPc, 5′-nucleotidase, in the presence of an inhibitor, more particularly corresponding to the compound (Ic), (Ig) or (Ii) according to the invention, or in the absence of any inhibitor (control), and this for a period of the order of 60 mins.
(§4) The reaction is stopped by adding an amount of 100 microliters of the reagent Biomol Green™ and the plate is incubated for further 30 mins in order to allow development of the colour before reading the absorbance by means of a micro-plate reader.
The study of the inhibition of the PDE enzymes by the compound (Ic), (Ig) or (Ii) according to the invention was carried out by testing […] different concentrations (500 μM, 50 μM, 5 μM and 0.5 μM) of said compounds (Ic), (Ig) or (Ii).

Assay [2] relates to PDE4 (recombinant human phosphodiesterases PDE4B2 and PDE4D). The assay can be described thus: PDE4 enzyme inhibition, colorimetric cAMP cleavage test (5'-nucleotidase, Biomol Green). The settings on record: for IC50: average of three independent determinations, non-linear regression, 60 min incubation, 2% DMSO, read-out: CI50 (inhibitory concentration 50). How it is done:
The activity of the PDE1 and PDE10 enzymes was also monitored.
as §2, §4
The CI50s which were calculated represent the average value of three determinations which were achieved independently of each other.
A non-specific inhibitor of the PDE enzymes, 3-isobutyl-1-methylxanthin (IBMX) corresponds to the control.

Assay [3] concerns the target PDE10 (Homo sapiens, UniProt Q9Y233). The experiment in a line: PDE10 enzyme inhibition, same colorimetric test. The settings on record: read-out: percentage of inhibition towards PDE10. How it is done: as §1, §2, §3
The reaction is stopped by adding an amount of 100 microliters of the reagent Biomol Green™ and the plate is incubated for further 30 mins in order to allow development of the colour before reading the absorbance by means of a micro-plate reader. […]

[4] abbreviates: at a concentration of 50 μM of compound.

Sequence of PDE10 (Q9Y233 whole entry): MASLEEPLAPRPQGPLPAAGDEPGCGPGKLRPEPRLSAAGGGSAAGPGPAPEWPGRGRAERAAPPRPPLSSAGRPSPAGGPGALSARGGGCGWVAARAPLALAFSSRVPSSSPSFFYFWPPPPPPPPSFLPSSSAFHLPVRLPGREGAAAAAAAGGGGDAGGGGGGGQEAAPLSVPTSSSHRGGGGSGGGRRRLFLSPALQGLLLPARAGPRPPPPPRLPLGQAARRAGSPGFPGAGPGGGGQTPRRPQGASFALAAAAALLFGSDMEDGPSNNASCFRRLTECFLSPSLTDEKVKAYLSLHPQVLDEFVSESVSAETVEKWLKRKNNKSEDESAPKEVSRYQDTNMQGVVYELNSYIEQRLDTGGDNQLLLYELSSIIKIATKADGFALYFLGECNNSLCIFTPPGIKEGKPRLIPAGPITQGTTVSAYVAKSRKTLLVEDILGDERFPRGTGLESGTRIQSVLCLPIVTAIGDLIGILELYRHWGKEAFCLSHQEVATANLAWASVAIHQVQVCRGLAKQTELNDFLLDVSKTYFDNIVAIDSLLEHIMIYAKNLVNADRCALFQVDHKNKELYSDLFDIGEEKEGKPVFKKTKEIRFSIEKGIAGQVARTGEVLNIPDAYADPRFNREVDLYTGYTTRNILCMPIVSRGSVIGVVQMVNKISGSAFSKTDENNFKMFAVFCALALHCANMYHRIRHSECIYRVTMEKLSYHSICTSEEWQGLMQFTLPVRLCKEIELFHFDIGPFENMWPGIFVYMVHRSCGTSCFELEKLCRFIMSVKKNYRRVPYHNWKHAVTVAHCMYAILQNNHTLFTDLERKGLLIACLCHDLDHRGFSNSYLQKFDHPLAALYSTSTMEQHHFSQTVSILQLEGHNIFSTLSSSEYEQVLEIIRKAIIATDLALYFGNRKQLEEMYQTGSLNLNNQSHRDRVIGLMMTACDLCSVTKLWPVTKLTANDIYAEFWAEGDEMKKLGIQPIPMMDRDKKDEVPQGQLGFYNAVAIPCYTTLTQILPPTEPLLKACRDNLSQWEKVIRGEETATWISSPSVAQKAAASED

Turning to `COc1ccc(-c2cc(C(F)(F)F)c(=O)[nH]n2)cc1OC` [compound (Ic), 4-(trifluoromethyl)-6-(3′,4′-dimethoxyphenyl)pyridazin-3(2H)-one], the “inhibition of PDE1” value in assay [1] came out at 0%. Besides, the “inhibition percentage of PDE4” value in assay [2] (setting [4]) is given as 74%. Besides, in assay [2], the IC50 is 8.1 µM.
Turning to `Cc1ccc(-c2cc(C(F)(F)F)c(=O)n(-c3ccccc3)n2)cc1` [compound (Ig), 4-(trifluoromethyl)-2-phenyl-6-(p-tolyl)pyridazin-3(2H)-one], the “inhibition of PDE1” value in assay [1] was found to be 0%. The “inhibition percentage of PDE4” value in assay [2] (setting [4]) was determined as 45%. Further, the IC50 in assay [2] worked out at 15 µM.
Turning to `COc1cc(-c2cc(C(F)(F)F)c(=O)[nH]n2)ccc1OC(F)F` [compound (Ii), 6-(4′-(difluoromethoxy)-3′-methoxy-phenyl)-4-(trifluoromethyl)pyridazin-3(2H)-one], in assay [1], the “inhibition of PDE1” value stood at 0%. In assay [3], the inhibition at 50 µM came to 9%. For the same molecule, the “inhibition percentage of PDE4” value in assay [2] (at a 5 μM concentration of compound) worked out at 56%. Further, the IC50 in assay [2] is 0.25 µM.

The term inhibition denotes the percentage by which the read-out fell short of the control.
